Laboratory results reported in PubChem BioAssay AID1918935 (Molecular Pharmacology Branch, DTP, NCI, 2023).

System: 324938-238-R-J1-PDC complex spheroid viability
Test: Anticancer human tumor 324938-238-R-J1-PDC patient-derived bladder carcinoma cell line growth inhibition
Details: for IC50: curve of first compound; for viability, T/C: stronger effect = lower value
Summary of the method: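 Multicellular complex spheroids of tumor cells with human endothelial cells (HUVEC) and mesenchymal stem cells; the LSD1 inhibitor iadademstat was combined with standard-of-care or investigational agents. Top concentration at or near clinical Cmax, half-log dilutions; final DMSO ≤0.25%.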

[1] = second compound 0.1 µM, first compound 0.000316 µM
[2] = second compound 0.1 µM, first compound 0.001 µM
[3] = second compound 0.1 µM, first compound 0.00316 µM
[4] = second compound 0.1 µM, first compound 0.01 µM
[5] = second compound 0.1 µM, first compound 0.0316 µM
[6] = second compound 0.1 µM, first compound 0.1 µM
[7] = second compound 0.316 µM, first compound 0.000316 µM
[8] = second compound 0.316 µM, first compound 0.001 µM
[9] = second compound 0.316 µM, first compound 0.00316 µM
[10] = second compound 0.316 µM, first compound 0.01 µM
[11] = second compound 0.316 µM, first compound 0.0316 µM
[12] = second compound 0.316 µM, first compound 0.1 µM
[13] = second compound 1 µM, first compound 0.000316 µM
[14] = second compound 1 µM, first compound 0.001 µM
[15] = second compound 1 µM, first compound 0.00316 µM
[16] = second compound 1 µM, first compound 0.01 µM
[17] = second compound 1 µM, first compound 0.0316 µM
[18] = second compound 1 µM, first compound 0.1 µM
[19] = second compound 3.16 µM, first compound 0.000316 µM
[20] = second compound 3.16 µM, first compound 0.001 µM
[21] = second compound 3.16 µM, first compound 0.00316 µM
[22] = second compound 3.16 µM, first compound 0.01 µM
[23] = second compound 3.16 µM, first compound 0.0316 µM
[24] = second compound 3.16 µM, first compound 0.1 µM
[25] = second compound 10 µM, first compound 0.000316 µM
[26] = second compound 10 µM, first compound 0.001 µM
[27] = second compound 10 µM, first compound 0.00316 µM
[28] = second compound 10 µM, first compound 0.01 µM
[29] = second compound 10 µM, first compound 0.0316 µM
[30] = second compound 10 µM, first compound 0.1 µM
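Note: spheroids also contain HUVEC and human MSCs and agents combined with iadademstat; spheroids exposed to agents for 7 days before readout.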

SMILES	IC50 (second compound 0.1 µM) [nM]	IC50 (second compound 0.316 µM) [nM]	IC50 (second compound 1 µM) [nM]	IC50 (second compound 3.16 µM) [nM]	IC50 (second compound 10 µM) [nM]	viability, T/C [1] [%]	viability, T/C [2] [%]	viability, T/C [3] [%]	viability, T/C [4] [%]	viability, T/C [5] [%]	viability, T/C [6] [%]	viability, T/C [7] [%]	viability, T/C [8] [%]	viability, T/C [9] [%]	viability, T/C [10] [%]	viability, T/C [11] [%]	viability, T/C [12] [%]	viability, T/C [13] [%]	viability, T/C [14] [%]	viability, T/C [15] [%]	also measured
CC(C)CC(NC(=O)C(Cc1ccccc1)NC(=O)c1cnccn1)B(O)O (stereo not given) + NC1CCC(NC2CC2c2ccccc2)CC1	0.472	0.443	0.483	0.442	0.434	66.8	18.7	0.06	0.03	0.03	0.15	64.9	14.3	0.14	0.01	0.02	0.12	72.2	12.1	0.1	viability, T/C [16]: 0.01%; viability, T/C [17]: 0.73%; viability, T/C [18]: 0.11%; viability, T/C [19]: 65%; viability, T/C [20]: 13.8%; viability, T/C [21]: 0.43%; viability, T/C [22]: 0.02%; viability, T/C [23]: 0.03%; viability, T/C [24]: 0.12%; viability, T/C [25]: 65%; viability, T/C [26]: 10.8%; viability, T/C [27]: 0.12%; viability, T/C [28]: 0.29%; viability, T/C [29]: 0.1%; viability, T/C [30]: 0.17%
CC(C)CC(NC(=O)CNC(=O)c1cc(Cl)ccc1Cl)B1OC(=O)CC(CC(=O)O)(C(=O)O)O1 (stereo not given) + NC1CCC(NC2CC2c2ccccc2)CC1	2.3	1.97	1.98	1.72	1.75	78.5	76.7	39.9	5.51	0.09	0.14	88.5	68.9	37.8	6.24	0.11	0.14	87.1	62.5	44.2	viability, T/C [16]: 5.29%; viability, T/C [17]: 0.06%; viability, T/C [18]: 0.13%; viability, T/C [19]: 80.2%; viability, T/C [20]: 65.2%; viability, T/C [21]: 33%; viability, T/C [22]: 3.57%; viability, T/C [23]: 0.05%; viability, T/C [24]: 0.16%; viability, T/C [25]: 78.3%; viability, T/C [26]: 76.2%; viability, T/C [27]: 22.7%; viability, T/C [28]: 2.57%; viability, T/C [29]: 0.13%; viability, T/C [30]: 0.21%
